The record followed here is US7928113B2, “Integrin-binding small molecules” (University of Southern California, priority 2005, dated 2011).

What all share (assay type): cell-based, human
For series [1], the system named is MCF7 breast cancer cell line. Briefly: Cytotoxicity MTT assay, MCF7. The following applies: Homo sapiens; 20 μM, MCF7, 72 h MTT; read-out: % inhibition of cell growth at 20 μM, MCF7. An excerpt: (§1) Cell Culture. Human breast cancer cells (MCF-7, αvβ3—, overexpressed wild-type p53, ER+; MDA-MB 468, p53 mutant, ER+; and MDA-MB-435, αvβ3+, p53 mutant, ER−) and non-small cell lung cancer cells H1975 were obtained from the American Type Cell Culture (Rockville, Md. Q4). The HEY human ovarian carcinoma cell line naturally resistant to cisplatin (CDDP) was kindly provided by Dr. Dubeau (University of Southern California Norris Cancer Center). Cells were maintained as monolayer cultures in RPMI 1640 supplemented with 10% fetal bovine serum (Gemini-Bioproducts, Woodland, Calif.) and 2 mmol/L L-glutamine at 37° C. in a humidified atmosphere of 5% CO2. To remove the adherent cells from the flask for passaging and counting, cells were washed with PBS without calcium or magnesium, incubated with a small volume of 0.25% trypsin-EDTA solution (Sigma, St. Louis, Mo.) for 5 to 10 minutes, and washed with culture medium and centrifuged. All experiments were done using cells in exponential cell growth.
(§2) Cytotoxicity Assay. Cytotoxicity was assessed by 3-(4,5-dimethylthiazol-2-yl)-2,5-diphenyltetrazolium bromide (MTT) assay as previously described.^41, 54 Briefly, cells were seeded in 96-well microtiter plates and allowed to attach. Cells were subsequently treated with a continuous exposure to the corresponding drug for 72 hours. An MTT solution (at a final concentration of 0.5 mg/mL) was added to each well and cells were incubated for 4 hours at 37° C. After removal of the medium, DMSO was added and the absorbance was read at 570 nm. All assays were done in triplicate. The IC50 was then determined for each drug from a plot of log (drug concentration) versus percentage of cell kill.
(§3) Cytotoxicity of Selected Compounds in a Panel of Cancer Cell lines. Initially, we tested all compounds in two breast cancer cell lines MDA-MB-435 and MCF7 with high and low αvβ3 expression as well as in HEY ovarian cancer cell line naturally resistant to cisplatin. […] We observed a remarkable specificity for some of the compounds against these cells. […] Considering the fact that αvβ3 mediates migration, attachment and apoptosis of cancer cells, the combination of these novel high affinity antagonists with conventional cytotoxic drugs should show improved therapeutic benefits without additional toxicity.
(§4) NVX-188 was tested for cytotoxicity by MTT assays in two breast cancer cell lines, MDA-MB-435 with high αvβ3 integrin expression and MCF7 with low αvβ3 integrin expression, and an ovarian cancer cell line, HEY, which was used to test for cell growth inhibition evidence. NVX-188 was further evaluated in a lung cancer cell line, NCI-H1975, and a mouse fibroblast, NIH3T3. NVX-188 was not cytotoxic at the highest dose level tested (20 uM).

Series [2] has as its system HEY ovarian cancer cell line. Put plainly: Cytotoxicity MTT assay, HEY. Particulars: Homo sapiens; 20 μM, HEY, 72 h MTT; read-out: % inhibition of cell growth at 20 μM, HEY.
From the text: as §1, §2, §3, §4
For orientation: Formazan colour is commonly taken as a measure of viable cells.

For series [3], the system named is MDA-MB-435 breast cancer cell line. Put plainly: Cytotoxicity MTT assay, MDA-MB-435. Particulars: Homo sapiens; 20 μM, MDA-MB-435, 72 h MTT; read-out: % inhibition of cell growth at 20 μM, 435.
From the text: as §1, §2, §3, §4

Series [4] in a line: Cytotoxicity MTT assay, MCF7. Particulars: human, MCF-7 breast cancer cells; MCF-7, Table 5.
From the text: as §1, §2, §3, §4

The nature of series [5]: Cytotoxicity MTT assay, HEY. Particulars: human, HEY ovarian carcinoma cells; HEY, Table 5.
From the text: as §1, §2, §3, §4

A short description of series [6]: Cytotoxicity MTT assay, MDA-MB-435. The following applies: human, MDA-MB-435 breast cancer cells; MDA-MB-435, Table 5.
From the text: as §1, §2, §3, §4

Take `O=C(CCCCn1cnc2c(S)ncnc21)Nc1ccc(C(=O)O)cc1` [AV1]: the inhibition at 20 µM in series [1] came out at 0%; in series [2], 14%; in series [3], 0%.
Take `O=C(CCCCn1cnc2c(S)ncnc21)Nc1ccc(C(=O)O)c(O)c1` [AV2]: the inhibition at 20 µM was determined as 1% in series [1], 0% in series [2] and 1% in series [3].
As for `CN(Cc1cnc2nc(N)nc(N)c2n1)c1ccc(C(=O)NC(CCCCN)C(=O)O)cc1` (stereo not drawn) [AV4], the inhibition at 20 µM in series [1] was found to be 30%; in series [2], 0%; in series [3], 16%.
For the molecule `CC(=O)Nc1nc(O)c2nc(CCN(C)c3ccc(C(=O)O)cc3)cnc2n1` [AV5], the inhibition at 20 µM was found to be 0% in series [1], 0% in series [2] and 49% in series [3].
For the molecule `Nc1nc(O)c2nc3c(nc2n1)C(=O)N(c1ccc(C(=O)NC(CCC(=O)O)C(=O)O)cc1)C3` (stereo not drawn) [AV6], the inhibition at 20 µM came to 19% in series [1], 0% in series [2] and 12% in series [3].
Taken in the same sequence, the figures for `Nc1nc(O)c2cc(CSc3ccc(C(=O)NC(CCC(=O)O)C(=O)O)cc3)ccc2n1` (stereo not drawn) [AV7] were 22%, 0% and 5%.
For `Nc1nc(O)c2cc(COc3ccc(C(=O)NC(CCC(=O)O)C(=O)O)cc3)ccc2n1` (stereo not drawn) [AV8], in that order: 24%, 6% and 12%.
For `Nc1ccc(C(=O)Nc2nc3ccc(C(=O)O)cc3s2)cc1` [AV9], in that order: 36%, 0% and 19%.
With `O=C(O)c1ccc(-c2ccc(/C=N/Nc3nc(Nc4ccccc4)nc(Nc4ccccc4)n3)o2)cc1` [AV10], the figures for the inhibition at 20 µM in series [1], in series [2] and in series [3] were 62%, 73% and 93%, respectively. Besides, the half-inhibitory concentration (IC50) at 72 h in series [4] was over 20 µM; in series [5], 21 ± 3 µM; in series [6] it was 18 ± 9 µM.
With `COc1cc(/C=N/Nc2nc(Nc3ccc(F)cc3)nc(N3CCCCC3)n2)ccc1OCC(=O)O` [AV11], the values for the inhibition at 20 µM in series [1], in series [2] and in series [3] were 49%, 0% and 53%, respectively.
Consider `CCOc1cc(/C=N/Nc2nc(Nc3ccccc3)nc(N3CCCCC3)n2)ccc1OCC(=O)O` [AV14], for which the results for the inhibition at 20 µM in series [1], in series [2] and in series [3] were 3%, 0% and 70%, respectively.
For the molecule `CC1=C(C#N)c2nc(N)c(C#N)c(C)c2/C1=C/c1ccc(-c2ccc(Cl)c(C(=O)O)c2)o1` [AV15], the values for the inhibition at 20 µM in series [1], in series [2] and in series [3] were 14%, 14% and 33%, respectively.
In the case of `Cc1ccnc(NS(=O)(=O)c2ccc(NC(=O)c3ccc(C(=O)O)cc3C(=O)O)cc2)n1` [AV18], the inhibition at 20 µM was determined as 11% in series [1], 0% in series [2] and 18% in series [3].
In the case of `CC1=NN(c2ccc(C(=O)O)cc2)C(=O)/C1=C/c1ccc(-c2ccc(S(N)(=O)=O)cc2)o1` [AV19], the inhibition at 20 µM in series [1] amounted to 66%; in series [2], 6%; in series [3], 30%. The values for the IC50 at 72 h in series [4], in series [5] and in series [6] were 19 ± 4 µM, over 20 µM and over 20 µM, respectively.
Turning to `Cc1nnc(N/N=C/c2ccc(OCC(=O)O)cc2)nc1O` [AV20], the inhibition at 20 µM in series [1] amounted to 27%; in series [2], 0%; in series [3] it was 11%.
For `COc1cc(/C=C2\NC(=O)N(CC(=O)Nc3ccc(C)cc3)C2=O)ccc1OCc1cccc(C(=O)O)c1` [AV21], the figures for the inhibition at 20 µM in series [1], in series [2] and in series [3] were 43%, 0% and 26%, respectively.
Taken in the same sequence, the figures for `CCn1cc(C(=O)O)c(=O)c2cc(F)c(N3CCN(S(=O)(=O)c4ccc(NC(C)=O)cc4)CC3)cc21` [AV22] were 7%, 0% and 25%.
`O=C(CSc1nnnn1-c1ccc(O)cc1)NCc1cccc(C(=O)O)c1` [AV23]: the inhibition at 20 µM in series [1] stood at 34%; in series [2], 0%; in series [3], 9%.
For `CN(C1=NC(=O)/C(=C\c2ccc(OCC(=O)O)cc2)S1)c1ccc(O)cc1` [AV24], in that order: 21%, 19% and 9%.
With `COc1cc(/C=C2/SC(N(C)c3ccc(O)cc3)=NC2=O)ccc1OCC(=O)O` [AV25], the inhibition at 20 µM in series [1] is 29%; in series [2], 12%; in series [3], 26%.
Taken in the same sequence, the figures for `CCC(=O)Nc1ccc(C(=O)Nc2ccc(OCC(=O)O)cc2)cc1` [AV28] were 32%, 34% and 32%.
Turning to `O=C(O)COc1ccc(/C=N/NC(=O)c2ccc(O)cc2)cc1OCC(=O)O` [AV29], the figures for the inhibition at 20 µM in series [1], in series [2] and in series [3] were 21%, 9% and 14%, respectively.
In the case of `CCC(=O)Nc1nc(C)c(-c2csc(Nc3cccc(C(=O)O)c3)n2)s1` [AV31], the inhibition at 20 µM turned out to be 44% in series [1], 62% in series [2] and 21% in series [3].
Taken in the same sequence, the figures for `COc1cc(OC)c(/C=C2\S/C(=N/c3ccc(C(=O)O)cc3)N(C)C2=O)cc1Br` [AV36] were 29%, 4% and 16%.
For `COc1cc(/C=C2\S/C(=N/c3cccc(C(=O)O)c3)N(C)C2=O)cc(Cl)c1O` [AV37], in that order: 9%, 0% and 3%.

As a reminder, the inhibition is the percentage by which the read-out fell short of the control. As usually defined, the IC50 is the concentration that inhibits the measured activity by half.
